Laboratory results from EPA's ToxRefDB 2.

Columns and labels:
rat [1] = settings: Subchronic oral toxicity in rodents, other, Feed, dose end: 13 week, group: systemic, systemic / organ weight / liver / relative to body weight + systemic / organ weight / thymus / absolute + systemic / organ weight / thymus…
mouse [2] = settings: Carcinogenicity; cd1; Oral; Feed; dose end: 87 week; group: systemic; systemic / clinical chemistry / alanine aminotransferase (alt/sgpt) / alanine aminotransferase (alt/sgpt) + systemic / clinical chemistry / …
dog [3] = settings: Chronic toxicity, beagle, Oral, Feed, dose end: 104 week, group: systemic
rabbit [4] = settings: Prenatal developmental toxicity study; new zealand white; Oral; Gavage/Intubation; dose end: 19 GD; group: maternal; reproductive / reproductive performance / aborted / aborted + reproductive / reproductive performance / resorptions / resorptions + systemic…
rat [5] = settings: Subchronic oral toxicity in rodents, sprague dawley, Diet, dose end: 13 week, group: systemic
rabbit [6] = settings: Prenatal developmental toxicity study; new zealand white; Oral; Gavage/Intubation; dose end: 18 GD; group: maternal; systemic / in life observation / body weight / body weight gain + systemic / in life observation / clinical signs / anorexia + systemic / in…
rat [7] = settings: Prenatal developmental toxicity study, other, Oral, Gavage/Intubation, dose end: 15 GD
rat [8] = settings: Multigenerational reproductive toxicity study, sprague dawley, Oral, Feed, dose end: 2 generation
rat [9] = settings: Subchronic oral toxicity in rodents, long evans, Feed, dose end: 13 week, group: systemic, systemic / organ weight / liver / absolute + systemic / organ weight / liver / relative to body weight + systemic / pathology microscopic / …
rabbit [10] = settings: Prenatal developmental toxicity study, new zealand white, Oral, Gavage/Intubation, dose end: 19 GD
dog [11] = settings: Chronic toxicity, beagle, Oral, Capsule, dose end: 52 week, group: systemic
rat [12] = settings: Multigenerational reproductive toxicity study, sprague dawley, Oral, Feed, dose end: 2 generation; remark: listed apart in the source
rat [13] = settings: Combined chronic toxicity/carcinogenicity, other, Oral, Feed, dose end: 100 week, group: systemic
rat [14] = settings: Subchronic oral toxicity in rodents, other, [Not Specified], dose end: 13 week, group: systemic
rat [15] = settings: Prenatal developmental toxicity study, sprague dawley, Oral, Gavage/Intubation, dose end: 15 GD
mouse [16] = settings: Carcinogenicity, cd1, Oral, Feed, dose end: 78 week, group: systemic
mouse [17] = settings: Carcinogenicity, b6c3f1, Oral, Feed, dose end: 18 month, group: systemic
rat [18] = settings: Combined chronic toxicity/carcinogenicity; fischer; Oral; Feed; dose end: 2 year; group: systemic; systemic / clinical chemistry / alkaline phosphatase (alp/alk) / alkaline phosphatase (alp/alk) + systemic / clinical chemistry / globulins…
rat [19] = settings: Multigenerational reproductive toxicity study, sprague dawley, Oral, Feed, dose end: 2 generation; remark: listed apart in the source
rat [20] = settings: Prenatal developmental toxicity study, sprague dawley, Oral, Gavage/Intubation, dose end: 19 GD
[21] = systemic / clinical chemistry / alkaline phosphatase (alp/alk) / alkaline phosphatase (alp/alk) + systemic / in life observation / body …
[22] = systemic / in life observation / body weight / body weight gain + systemic / organ weight / liver / absolute + systemic / organ weight / …
[23] = systemic / in life observation / clinical signs / anemia - microcytic + systemic / urinalysis / volume / volume + systemic / clinical …
[24] = group: developmental, developmental / developmental malformation / bone / bent + developmental / developmental malformation / bone / fused + developmental / …
[25] = group: maternal, systemic / in life observation / clinical signs / defecation + systemic / in life observation / clinical signs / defecation (diarrhea) + …
[26] = group: offspring, systemic / in life observation / body weight / offspring (pup) weight + systemic / in life observation / body weight / offspring (pup) …
[27] = group: parental, systemic / pathology microscopic / kidney / hyperplasia + systemic / pathology microscopic / kidney / mineralization + systemic / pathology …
[28] = group: reproductive, reproductive / offspring survival early / birth index / live birth index
[29] = group: developmental, developmental / developmental malformation / bone / irregular ossification + developmental / developmental malformation / bone / misshapen …
[30] = group: maternal, systemic / in life observation / body weight / body weight gain + systemic / in life observation / food consumption / food consumption + …
[31] = systemic / clinical chemistry / alanine aminotransferase (alt/sgpt) / alanine aminotransferase (alt/sgpt) + systemic / clinical chemistry / …
[32] = systemic / in life observation / body weight / body weight gain
[33] = group: offspring, developmental / offspring survival late / viability index / viability index
[34] = group: offspring, developmental / offspring survival late / viability index / viability index + systemic / in life observation / body weight / offspring (pup…
[35] = group: parental, systemic / in life observation / body weight / body weight + systemic / in life observation / mortality / mortality + systemic / pathology …
[36] = systemic / pathology gross / adrenal gland / enlarged
[37] = systemic / urinalysis / ph / ph
[38] = group: developmental, developmental / developmental malformation / bone / full supernumerary
[39] = group: maternal, systemic / in life observation / body weight / body weight gain
[40] = systemic / pathology microscopic / liver / vacuolization
[41] = systemic / pathology microscopic / liver / vacuolization + systemic / in life observation / body weight / body weight gain + systemic / …
[42] = systemic / organ weight / liver / absolute + systemic / in life observation / body weight / body weight
[43] = systemic / organ weight / liver / absolute + systemic / in life observation / body weight / body weight + systemic / organ weight / liver / …
[44] = group: offspring, developmental / offspring survival late / viability index / viability index + systemic / pathology microscopic / kidney / dilatation
[45] = group: offspring, developmental / offspring survival late / viability index / viability index + systemic / pathology microscopic / kidney / dilatation + …
[46] = group: parental, systemic / pathology microscopic / kidney / dilatation + systemic / in life observation / body weight / body weight + systemic / in life …
[47] = group: developmental, developmental / developmental malformation / bone / incomplete ossification + developmental / developmental malformation / brain / dilated …
[48] = group: maternal, systemic / in life observation / clinical signs / piloerection + systemic / in life observation / clinical signs / salivation
[49] = group: maternal, systemic / in life observation / clinical signs / piloerection + systemic / in life observation / clinical signs / salivation + reproductive…

CCOc1cc(Oc2ccc(C(F)(F)F)cc2Cl)ccc1[N+](=O)[O-] [Oxyfluorfen]
LEL (rat [1]): 71 mg/kg/day | LOAEL (rat [1]): 71 mg/kg/day | NEL (rat [1]): 14 mg/kg/day | NOAEL (rat [1]): 14 mg/kg/day | LEL (mouse [2]): 33 mg/kg/day | LOAEL (mouse [2]): 33 mg/kg/day | NEL (mouse [2]): 3 mg/kg/day | NOAEL (mouse [2]): 3 mg/kg/day | LOAEL (dog [3]; [21]): 18.5 mg/kg/day | NOAEL (dog [3]; [21]): 3.1 mg/kg/day | LEL (dog [3]; [22]): 3 mg/kg/day | NEL (dog [3]; [22]): < 3 mg/kg/day | LEL (rabbit [4]): 90 mg/kg/day | LOAEL (rabbit [4]): 90 mg/kg/day | NEL (rabbit [4]): 30 mg/kg/day | NOAEL (rabbit [4]): 30 mg/kg/day | LEL (rat [5]; systemic / hematology / mean corpuscular (cell) volume (mcv) / mean corpuscular (cell) volume (mcv) + systemic / hematology / mean …): 144 mg/kg/day | LOAEL (rat [5]; systemic / in life observation / clinical signs / anemia - microcytic + systemic / urinalysis / volume / volume): 585 mg/kg/day | NEL (rat [5]; [23]): 46.7 mg/kg/day | NOAEL (rat [5]; [23]): 144 mg/kg/day | LEL (rabbit [6]): 30 mg/kg/day | LOAEL (rabbit [6]): 30 mg/kg/day | NEL (rabbit [6]): 10 mg/kg/day | NOAEL (rabbit [6]): 10 mg/kg/day | LEL (rat [7]; [24]): 183 mg/kg/day | LOAEL (rat [7]; [24]): 183 mg/kg/day | NEL (rat [7]; [24]): 18 mg/kg/day | NOAEL (rat [7]; [24]): 18 mg/kg/day | LEL (rat [7]; [25]): 183 mg/kg/day | LOAEL (rat [7]; [25]): 183 mg/kg/day | NEL (rat [7]; [25]): 18 mg/kg/day | NOAEL (rat [7]; [25]): 18 mg/kg/day | LEL (rat [8]; [26]): 146 mg/kg/day | LOAEL (rat [8]; [26]): 146 mg/kg/day | NEL (rat [8]; [26]): 36.4 mg/kg/day | NOAEL (rat [8]; [26]): 36.4 mg/kg/day | LEL (rat [8]; [27]): 120 mg/kg/day | LOAEL (rat [8]; [27]): 120 mg/kg/day | NEL (rat [8]; [27]): 30.9 mg/kg/day | NOAEL (rat [8]; [27]): 30.9 mg/kg/day | LEL (rat [8]; [28]): 146 mg/kg/day | LOAEL (rat [8]; [28]): 146 mg/kg/day | NEL (rat [8]; [28]): 36.4 mg/kg/day | NOAEL (rat [8]; [28]): 36.4 mg/kg/day | LEL (rat [9]): 51.4 mg/kg/day | LOAEL (rat [9]): 51.4 mg/kg/day | NEL (rat [9]): < 51.4 mg/kg/day | NOAEL (rat [9]): < 51.4 mg/kg/day

CC1(C)CC/C(=C\c2ccc(Cl)cc2)C1(O)Cn1cncn1 (stereo unspecified) [Triticonazole]
LEL (rabbit [10]; [29]): 75 mg/kg/day | LOAEL (rabbit [10]; [29]): 75 mg/kg/day | NEL (rabbit [10]; [29]): 50 mg/kg/day | NOAEL (rabbit [10]; [29]): 50 mg/kg/day | LEL (rabbit [10]; [30]): 50 mg/kg/day | LOAEL (rabbit [10]; [30]): 50 mg/kg/day | NEL (rabbit [10]; [30]): 25 mg/kg/day | NOAEL (rabbit [10]; [30]): 25 mg/kg/day | LOAEL (dog [11]; [31]): 150 mg/kg/day | NOAEL (dog [11]; [31]): 25 mg/kg/day | LEL (dog [11]; [32]): 2.5 mg/kg/day | NEL (dog [11]; [32]): < 2.5 mg/kg/day | LEL (rat [12]; [33]): 0.25 mg/kg/day | NEL (rat [12]; [33]): < 0.25 mg/kg/day | LOAEL (rat [12]; [34]): 250 mg/kg/day | NOAEL (rat [12]; [34]): 37.5 mg/kg/day | LOAEL (rat [12]; [35]): 250 mg/kg/day | NOAEL (rat [12]; [35]): 37.5 mg/kg/day | NEL (rat [12]; group: parental, systemic / in life observation / body weight / body weight + systemic / pathology microscopic / adrenal gland / vacuolization + systemic / …): 1.25 mg/kg/day | LEL (rat [12]; group: parental, systemic / organ weight / adrenal gland / absolute): 37.5 mg/kg/day | LEL (rat [12]; [28]): 0.25 mg/kg/day | NEL (rat [12]; [28]): < 0.25 mg/kg/day | LOAEL (rat [12]; group: reproductive, reproductive / reproductive performance / fertility / fertility): 250 mg/kg/day | NOAEL (rat [12]; group: reproductive, reproductive / reproductive performance / fertility / fertility + reproductive / offspring survival early / birth index / live birth index…): 37.5 mg/kg/day | LEL (rat [13]; [36]): 0.2 mg/kg/day | NEL (rat [13]; [36]): < 0.2 mg/kg/day | LOAEL (rat [13]; systemic / pathology microscopic / adrenal gland / inflammation + systemic / in life observation / body weight / body weight + systemic / in…): 287 mg/kg/day | NOAEL (rat [13]; systemic / pathology microscopic / adrenal gland / inflammation + systemic / pathology microscopic / adrenal gland / atypia nuclear): 38.3 mg/kg/day | LOAEL (rat [14]; systemic / pathology microscopic / adrenal gland / vacuolization): 19.8 mg/kg/day | NOAEL (rat [14]; systemic / pathology microscopic / adrenal gland / vacuolization + systemic / clinical chemistry / alkaline phosphatase (alp/alk) / alkaline…): 2 mg/kg/day | LEL (rat [14]; [37]): 2.2 mg/kg/day | NEL (rat [14]; [37]): < 2.2 mg/kg/day | LEL (rat [15]; [38]): 1000 mg/kg/day | LOAEL (rat [15]; [38]): 1000 mg/kg/day | NEL (rat [15]; [38]): 200 mg/kg/day | NOAEL (rat [15]; [38]): 200 mg/kg/day | LEL (rat [15]; [39]): 1000 mg/kg/day | LOAEL (rat [15]; [39]): 1000 mg/kg/day | NEL (rat [15]; [39]): 200 mg/kg/day | NOAEL (rat [15]; [39]): 200 mg/kg/day | NEL (mouse [16]; [40]): 17.4 mg/kg/day | NOAEL (mouse [16]; [40]): 17.4 mg/kg/day | LEL (mouse [16]; [41]): 202 mg/kg/day | LOAEL (mouse [16]; [41]): 202 mg/kg/day

O=C([O-])c1cc(Oc2ccc(C(F)(F)F)cc2Cl)ccc1[N+](=O)[O-].[Na+] [Acifluorfen-sodium]
LOAEL (mouse [17]; [42]): 119 mg/kg/day | NOAEL (mouse [17]; [42]): < 119 mg/kg/day | LEL (mouse [17]; [43]): 119 mg/kg/day | NEL (mouse [17]; [43]): < 119 mg/kg/day | LEL (rat [18]): 125 mg/kg/day | LOAEL (rat [18]): 125 mg/kg/day | NEL (rat [18]): 25 mg/kg/day | NOAEL (rat [18]): 25 mg/kg/day | LEL (rat [19]; [44]): 50 mg/kg/day | LOAEL (rat [19]; [44]): 50 mg/kg/day | NEL (rat [19]; [45]): 2.5 mg/kg/day | NOAEL (rat [19]; [45]): 2.5 mg/kg/day | LOAEL (rat [19]; group: parental, systemic / pathology microscopic / kidney / dilatation): 50 mg/kg/day | NEL (rat [19]; [46]): 2.5 mg/kg/day | NOAEL (rat [19]; [46]): 2.5 mg/kg/day | LEL (rat [19]; group: parental, systemic / pathology microscopic / kidney / dilatation + systemic / in life observation / body weight / body weight gain): 50 mg/kg/day | LEL (rat [20]; [47]): 90 mg/kg/day | LOAEL (rat [20]; [47]): 90 mg/kg/day | NEL (rat [20]; [47]): 20 mg/kg/day | NOAEL (rat [20]; [47]): 20 mg/kg/day | LEL (rat [20]; [48]): 90 mg/kg/day | LOAEL (rat [20]; [48]): 90 mg/kg/day | NEL (rat [20]; [49]): 20 mg/kg/day | NOAEL (rat [20]; [49]): 20 mg/kg/day
